Target: T1, CXCR4 (Homo sapiens, UniProt P61073)
T1 construct: full-length endogenous receptor on intact Jurkat T cells, untagged
Assay: inhibition of CXCL12-AF647 binding to intact Jurkat cells, flow cytometry
Format: cell-based
Conditions: competition with 2.9 nM CXCL12-AF647; HBSS, 20 mM HEPES, 0.2% BSA, pH 7.4, RT; 15 min preincubation, 30 min with tracer; n = 3; chelator without gallium
Text: inhibition of CXCL12-AF647 binding to intact Jurkat cells, flow cytometry on CXCR4

T1 sequence (P61073 whole entry): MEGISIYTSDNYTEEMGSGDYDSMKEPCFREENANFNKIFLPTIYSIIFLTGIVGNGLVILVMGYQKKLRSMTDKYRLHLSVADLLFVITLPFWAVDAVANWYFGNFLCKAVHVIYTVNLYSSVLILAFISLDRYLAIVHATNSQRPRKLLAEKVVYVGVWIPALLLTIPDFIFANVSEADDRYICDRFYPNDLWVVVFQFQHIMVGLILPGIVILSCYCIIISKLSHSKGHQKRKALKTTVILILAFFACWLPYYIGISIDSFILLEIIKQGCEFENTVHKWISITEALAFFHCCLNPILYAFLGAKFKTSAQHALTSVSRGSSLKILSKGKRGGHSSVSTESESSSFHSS

O=C(O)CN1CCN(CC(=O)O)CCN(C(CCC(=O)NCc2ccc(NC(=S)NCCCCN(C[C@H]3Cc4ccccc4CN3)[C@H]3CCCc4cccnc43)cc2)C(=O)O)CCN(CC(=O)O)CC1 (stereo partly shown) [TD-01]
IC50: 0.0365 ± 0.0014 µM
